Source: patent publication US8987314B2, “Amide, urea or sulfone amide linked benzothiazole inhibitors of endothelial lipase” (Bristol-Myers Squibb Company, priority 2012, dated 2015)

Experiments:
Endothelial lipase (EL) = Endothelial lipase (EL) (Homo sapiens (Human), UniProt Q9Y5X9); experiment: EL assay: endothelial lipase activity with fluorescent substrate A10070 in DMPG vesicles; format: biochemical
Procedure, shortened: (§1)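 EL from conditioned medium of HT-1080 cells engineered to overexpress endogenous EL; HL partially purified from conditioned medium of HL-overexpressing COS cells. Enzyme preincubated with compound 30 min at 37° C in 50 mM HEPES pH 8.0, 50 mM NaCl, 1 mM CaCl2; DMPG vesicles carrying FRET substrate (0.11 mole fraction) then added.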

hepatic lipase (HL) = hepatic lipase (HL) (Homo sapiens (Human), UniProt P11150); experiment: HL assay: hepatic lipase activity with fluorescent substrate A10070 in DMPG vesicles; format: biochemical
Procedure, shortened: as §1

Endothelial lipase (EL), sequence (Q9Y5X9 21-500): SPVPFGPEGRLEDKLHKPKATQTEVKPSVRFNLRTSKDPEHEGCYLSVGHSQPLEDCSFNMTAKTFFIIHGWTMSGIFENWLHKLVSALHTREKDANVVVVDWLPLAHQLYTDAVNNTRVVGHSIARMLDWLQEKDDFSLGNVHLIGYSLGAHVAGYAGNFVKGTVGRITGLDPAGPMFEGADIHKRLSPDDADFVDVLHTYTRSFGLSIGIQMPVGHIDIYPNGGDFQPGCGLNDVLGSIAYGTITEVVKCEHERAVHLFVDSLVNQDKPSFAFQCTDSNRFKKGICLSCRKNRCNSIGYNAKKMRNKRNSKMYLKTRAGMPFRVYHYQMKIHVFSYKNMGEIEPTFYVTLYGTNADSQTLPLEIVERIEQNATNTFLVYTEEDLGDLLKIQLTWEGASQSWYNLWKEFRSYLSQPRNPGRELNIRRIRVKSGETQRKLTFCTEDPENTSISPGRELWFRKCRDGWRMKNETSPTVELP
hepatic lipase (HL), sequence (P11150 23-499, species assumed): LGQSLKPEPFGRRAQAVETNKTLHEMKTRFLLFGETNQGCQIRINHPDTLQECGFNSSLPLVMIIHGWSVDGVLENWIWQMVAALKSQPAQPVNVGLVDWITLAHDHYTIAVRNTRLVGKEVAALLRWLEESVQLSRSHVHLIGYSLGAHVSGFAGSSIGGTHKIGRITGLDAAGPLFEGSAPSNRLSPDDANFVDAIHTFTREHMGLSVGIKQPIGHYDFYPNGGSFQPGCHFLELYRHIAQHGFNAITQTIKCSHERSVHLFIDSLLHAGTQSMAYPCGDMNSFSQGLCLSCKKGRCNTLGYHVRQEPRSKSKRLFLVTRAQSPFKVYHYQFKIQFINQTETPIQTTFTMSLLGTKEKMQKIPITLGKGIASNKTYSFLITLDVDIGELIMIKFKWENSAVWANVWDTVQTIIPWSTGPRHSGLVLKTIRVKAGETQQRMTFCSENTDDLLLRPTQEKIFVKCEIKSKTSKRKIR

Row | SMILES | IC50 (Endothelial lipase (EL)) | IC50 (hepatic lipase (HL))
1 | NS(=O)(=O)CCNC(=O)C(c1nc2ccc(-c3ccc(C(=O)N4CC(F)C4)cc3)cc2s1)S(=O)(=O)Cc1ccc(OC(F)(F)F)cc1 (stereo not drawn) [Example B355, 2-{6-[4-(3-fluoroazetidine-1-carbonyl)phenyl]-1,3-benzothiazol-2-yl}-N-(2-sulfamoylethyl)-2-{[4-(trifluoromethoxy)phen-yl]methanesulfonyl}a-cetamide] | 6.6 nM | 235 nM
2 | NS(=O)(=O)CCNC(=O)C(c1nc2ccc(-c3ccc(C(=O)N4CC(F)(F)C4)cc3)cc2s1)S(=O)(=O)Cc1ccc(C(F)(F)F)cc1 (stereo not drawn) [Example B357, 2-{6-[4-(3,3-difluoro-azetidine-1-carbonyl)phen-yl]-1,3-benzothiazol-2-yl}-N-(2-sulfamoyl-ethyl)-2-{[4-(trifluoromethyl)phen-yl]methanesulfonyl}a-cetamide] | 15 nM | 93.2 nM
3 | Cn1cc(-c2ccc3nc(C(C(=O)NCCS(N)(=O)=O)S(=O)(=O)Cc4ccc(C(F)(F)F)cc4)sc3c2)ccc1=O (stereo not drawn) [Example B361] | 121 nM | 1230 nM
4 | CC1(O)CN(C(=O)c2ccc(-c3ccc4nc(C(C(N)=O)S(=O)(=O)Cc5ccc(OC(F)(F)F)cc5)sc4c3)cc2)C1 (stereo not drawn) [Example B362, 2-{6-[4-(3-hydroxy-3-methylazetidine-1-carbonyl)phenyl]-1,3-benzothiazol-2-yl}-2-{[4-(trifluoromethoxy)phen-yl]methanesulfonyl}a-cetamide] | 158 nM | 30.3 nM
5 | CC(C)(O)Cn1ccc(-c2ccc3nc(C(C(=O)NCCS(N)(=O)=O)S(=O)(=O)Cc4ccc(F)cc4)sc3c2)cc1=O (stereo not drawn) [Example B363, 2-[(4-fluorophenyl)meth-anesulfonyl]-2-{6-[1-(2-hydroxy-2-methylpropyl)-2-oxo-1,2-dihydropyridin-4-yl]-1,3-benzothiazol-2-yl}-N-(2-sulfamoylethyl)acetamide] | 11.6 nM | 10000 nM
6 | Cn1ccc(-c2ccc3nc(C(C(=O)NCCS(N)(=O)=O)S(=O)(=O)Cc4ccc(C(F)(F)F)cc4)sc3c2)cc1=O (stereo not drawn) [Example B364, 2-[6-(1-methyl-2-oxo-1,2-dihydropyridin-4-yl)-1,3-benzothiazol-2-yl]-N-(2-sulfamoylethyl)-2-{[4-(trifluoromethyl)phen-yl]methanesulfonyl}a-cetamide] | 28.3 nM | 10000 nM
7 | NS(=O)(=O)CCNC(=O)C(c1nc2ccc(-c3ccccc3F)cc2s1)S(=O)(=O)Cc1ccc(OC(F)(F)F)cc1 (stereo not drawn) [Example B365, 2-[6-(2-fluorophenyl)-1,3-benzothiazol-2-yl]-N-(2-sulfamoylethyl)-2-{[4-(trifluoromethoxy)phen-yl]methanesulfonyl}a-cetamide] | 17.2 nM | 2.1 nM
8 | COCCn1ccc(-c2ccc3nc(C(C(=O)NCCS(N)(=O)=O)S(=O)(=O)Cc4ccc(C(F)(F)F)cc4)sc3c2)cc1=O (stereo not drawn) [Example B367, 2-{6-[1-(2-methoxyethyl)-2-oxo-1,2-dihydropyridin-4-yl]-1,3-benzothiazol-2-yl}-N-(2-sulfamoylethyl)-2-{[4-(trifluoromethyl)phen-yl]methanesulfonyl}a-cetamide] | 13.5 nM | 2210 nM
9 | Cn1ccc(-c2ccc3nc(C(C(=O)NCCS(N)(=O)=O)S(=O)(=O)Cc4ccc(OC(F)(F)F)cc4)sc3c2)cc1=O (stereo not drawn) [Example B368, 2-[6-(1-methyl-2-oxo-1,2-dihydropyridin-4-yl)-1,3-benzothiazol-2-yl]-N-(2-sulfamoylethyl)-2-{[4-(trifluoromethoxy)phen-yl]methanesulfonyl}a-cetamide] | 15.8 nM | 1600 nM

These reach a lower IC50 (Endothelial lipase (EL)). Values come first.

Row | IC50 (Endothelial lipase (EL)) | IC50 (hepatic lipase (HL)) | SMILES
10 | 2 nM | 18.5 nM | CC1(O)CN(C(=O)c2ccc(-c3ccc4nc(C(C(=O)NCCS(N)(=O)=O)S(=O)(=O)Cc5ccc(F)cc5)sc4c3)cc2)C1 (stereo not drawn) [Example B353, 2-[(4-fluorophenyl)meth-anesulfonyl]-2-{6-[4-(3-hydroxy-3-methylazetidine-1-carbonyl)phcnyl]-1,3-benzothiazol-2-yl}-N-(2-sulfamoylethyl)acetamide]
11 | 3.8 nM | 553 nM | CO[C@@H]1CCN(C(=O)c2ccc(-c3ccc4nc(C(C(=O)NCCS(N)(=O)=O)S(=O)(=O)Cc5ccc(OC(F)(F)F)cc5)sc4c3)cc2)C1 (stereo partly drawn) [Example B354, 2-(6-{4-[(3R)-3-methoxy-pyrrolidine-1-carbonyl]phen-yl}-1,3-benzothiazol-2-yl)-N-(2-sulfamoyl-ethyl)-2-{[4-(trifluoro-methoxy)phenyl]methane-sulfonyl}acetamide]
12 | 2.7 nM | 26.7 nM | CO[C@H]1CCN(C(=O)c2ccc(-c3ccc4nc(C(C(=O)NCCS(N)(=O)=O)S(=O)(=O)Cc5ccc(OC(F)(F)F)cc5)sc4c3)cc2)C1 (stereo partly drawn) [Example B356, 2-(6-{4-[(3S)-3-methoxy-pyrrolidine-1-carbonyl]phen-yl}-1,3-benzothiazol-2-yl)-N-(2-sulfamoyl-ethyl)-2-{[4-(trifluoro-methoxy)phenyl]methane-sulfonyl}acetamide]
13 | 3.7 nM | 67.6 nM | NS(=O)(=O)CCNC(=O)C(c1nc2ccc(-c3ccc4c(c3)CNC4=O)cc2s1)S(=O)(=O)Cc1ccc(C(F)(F)F)cc1 (stereo not drawn) [Example B358, 2-[6-(1-oxo-2,3-dihydro-1H-isoindol-5-yl)-1,3-benzothiazol-2-yl]-N-(2-sulfamoylethyl)-2-{[4-(trifluoromethyl)phen-yl]methanesulfonyl}a-cetamide]
14 | 4.7 nM | 47 nM | NS(=O)(=O)CCNC(=O)C(c1nc2ccc(-c3ccc(C(=O)N4CC(F)(F)C4)cc3)cc2s1)S(=O)(=O)Cc1cccc(C(F)(F)F)c1 (stereo not drawn) [Example B359, 2-{6-[4-(3,3-difluoro-azetidine-1-carbonyl)phen-yl]-1,3-benzothiazol-2-yl}-N-(2-sulfamoyl-ethyl)-2-{[3-(trifluoromethyl)phen-yl]methanesulfonyl}a-cetamide]
15 | 6.2 nM | 471 nM | CC1(O)CN(C(=O)c2ccc(-c3ccc4nc(C(C(=O)NCCS(N)(=O)=O)S(=O)(=O)Cc5cccc(C(F)(F)F)c5)sc4c3)cc2)C1 (stereo not drawn) [Example B360, 2-{6-[4-(3-hydroxy-3-methylazetidine-1-carbonyl)phenyl]-1,3-benzothiazol-2-yl}-N-(2-sulfamoylethyl)-2-{[3-(trifluoromethyl)phen-yl]methanesulfonyl}a-cetamide]
16 | 4.4 nM | 219 nM | Cn1cc(-c2ccc3nc(C(C(=O)NCCS(N)(=O)=O)S(=O)(=O)Cc4cccc(C(F)(F)F)c4)sc3c2)ccc1=O (stereo not drawn) [Example B366, 2-[6-(1-methyl-6-oxo-1,6-dihydropyridin-3-yl)-1,3-benzothiazol-2-yl]-N-(2-sulfamoylethyl)-2-{[3-(trifluoromethyl)phen-yl]methanesulfonyl}a-cetamide]
17 | 1.5 nM | 414 nM | CS(=O)(=O)C(C(=O)NCCS(N)(=O)=O)c1nc2cc(-c3ccnc(F)c3)ccc2s1 (stereo not drawn) [Example B369, 2-[5-(2-fluoropyridin-4-yl)-1,3-benzothiazol-2-yl]-2-methanesulfonyl-N-(2-sulfamoylethyl)acetamide]
18 | 1.8 nM | 15.5 nM | COCCOc1ccc(-c2ccc3sc(C(C(=O)NCCS(N)(=O)=O)S(C)(=O)=O)nc3c2)cc1 (stereo not drawn) [Example B370, 2-methanesulfonyl-2-{5-[4-(2-methoxyethoxy)phen-yl]-1,3-benzothiazol-2-yl}-N-(2-sulfamoylethyl)a-cetamide]
